Twelve compounds from EP0519427A2, “N-substituted-3-iodopropiolamide, production and use thereof” (priority 1991, dated 1992) can be followed below.

Like-named read-outs stand apart in the source and are kept apart here.

What all share (assay): Antibacterial and antifungal activity, paper disc method
Assay type in all cases: cell-based

For assay [1], the system named is Penicillium citrinum IFO-7784. As to the method: (§1) Antibacterial and antifungal activity tests for various bacteria and fungi were conducted. The tests were carried out by the conventional paper disc method. That is, a paper disc (d=8 mm) was dipped in aqueous or methanol solution of the compound of the present invention (concentration : 1,000 µg/ml), then dried and used.
(§2) As bacteria to be tested, • ① Staphylococcus aureus IFO-12732 [hereinafter abbreviated to Sta.] • ② Bacillus subtilis IFO-13719 [Bac.] • ③ Escherichia coli IFO-3301 [Esc.] were used. As yeast to be tested, • ④ Saccharomyces cerevisiae IFO-0210 [Sac.] • ⑤ Candida albicans IFO-0583 [Can.] were used. As fungi to be tested, • ⑥ Aspergillus niger IFO-4407 [Asp.] • ⑦ Penicillium citrinum IFO-7784 [Pen.] • ⑧ Tyromyces palustris IFO-30339 [Tyr.] • ⑨ Coriolus versicolor IFO-30340 [Cor.] were used. Among the above fungi, Tyr. and Cor. are wood rot fungi.
(§3) As the test media, agar media shown below were used. That is, TSA (Trypticase Soy Agar) medium was used for Sta., Bac. and Esc.; YNB (Yeast Nitrogen Base) agar medium was used for Sac. and Can.; SDA (Sabouraud Dextrose Agar) medium was used for Asp. and Pen.; and PDA (Potato Dextrose Agar) medium was used for Try. and Cor.
(§4) The determination of antibacterial and antifungal effectiveness was carried out by measuring the diameter of the growth inhibition circle generated on the circumference of the paper disc. The indication of effectiveness is given as follows: -: no growth inhibition circle was observed. +: diameter of the growth inhibition circle was 9 - 20 mm ++: diameter of the growth inhibition circle was 21 - 40 mm +++: diameter of the growth inhibition circle was 41 mm or more

Assay [2] deals with Bacillus subtilis IFO-13719. As to conditions: Bacillus subtilis. Here is the method: as §1, §2, §3, §4
Assay [3] deals with Tyromyces palustris IFO-30339. The following applies: read-out: diameter of the growth inhibition circle, Tyr.(IFO-30339). Here is the method: as §1, §2, §3, §4
Assay [4] relates to Aspergillus niger IFO-4407. As to the method:
as §1, §2, §3, §4

Assay [5] deals with Candida albicans IFO-0583. As to the method: as §1, §2, §3, §4
The test system of assay [6] is Escherichia coli IFO-3301. As to conditions: for zone of inhibition at 1000 µg/mL: Escherichia coli. As to the method: as §1, §2, §3, §4
The subject of assay [7] is Coriolus versicolor IFO-30340. The following applies: Trametes versicolor. Here is the method: as §1, §2, §3, §4
Assay [8] deals with Staphylococcus aureus IFO-12732. Here is the method:
as §1, §2, §3, §4

In assay [9] the test system is Saccharomyces cerevisiae IFO-0210. Here is the method: as §1, §2, §3, §4
Setting [10] is: IFO7784, paper disc d=8 mm dipped in 1,000 µg/ml solution, SDA medium, read-out: diameter of the growth inhibition circle, Pen.(IFO-7784).
Setting [11] is: IFO13719, paper disc d=8 mm dipped in 1,000 µg/ml solution, TSA medium, read-out: diameter of the growth inhibition circle, Bac.(IFO-13719).
[12] abbreviates: paper disc d=8 mm dipped in 1,000 µg/ml solution, PDA medium.
Where [13] appears, read: IFO4407, paper disc d=8 mm dipped in 1,000 µg/ml solution, SDA medium, read-out: diameter of the growth inhibition circle, Asp.(IFO-4407).
Setting [14] is: IFO0583, paper disc d=8 mm dipped in 1,000 µg/ml solution, YNB agar medium, read-out: diameter of the growth inhibition circle, Can.(IFO-0583).
The mark [15] stands for this setting: IFO3301, paper disc d=8 mm dipped in 1,000 µg/ml solution, TSA medium, read-out: diameter of the growth inhibition circle, Esc.(IFO-3301).
[16] abbreviates: IFO30340, paper disc d=8 mm dipped in 1,000 µg/ml solution, PDA medium, read-out: diameter of the growth inhibition circle, Cor.(IFO-30340).
Where [17] appears, read: IFO12732, paper disc d=8 mm dipped in 1,000 µg/ml solution, TSA medium, read-out: diameter of the growth inhibition circle, Sta.(IFO-12732).
The mark [18] stands for this setting: IFO0210, paper disc d=8 mm dipped in 1,000 µg/ml solution, YNB agar medium, read-out: diameter of the growth inhibition circle, Sac.(IFO-0210).
Where [19] appears, read: paper disc d=8 mm dipped in 1,000 µg/ml solution, TSA medium.

With `O=C(C#CI)Nc1cccc(F)c1` [Example 17, N-(3-Fluorophenyl)-3-iodopropiolamide], the zone of inhibition at 1000 µg/mL in assay [1] (setting [10]) was over 41 mm; in assay [2] (setting [11]) it was 21 to 40 mm; in [3] (setting [12]), over 41 mm; in assay [4] (setting [13]), 21 to 40 mm; in [5] (setting [14]), 21 to 40 mm; in assay [6] (setting [15]), 9 to 20 mm. In addition, the zone of inhibition at 1000 µg/mL was over 41 mm in [7] (setting [16]), 21 to 40 mm in assay [8] (setting [17]) and 21 to 40 mm in assay [9] (setting [18]).

On to `CCCCN(CCCC)C(=O)C#CI` [Example 18, N,N-Di(n-butyl)-3-iodopropiolamide], for which the zone of inhibition at 1000 µg/mL in [1] (setting [10]) was over 41 mm; in [2] (setting [11]) it was 9 to 20 mm; in assay [3] (setting [12]), over 41 mm; in [4] (setting [13]), 21 to 40 mm; in [5] (setting [14]) it was 21 to 40 mm; in assay [7] (setting [16]), over 41 mm. Moreover, the zone of inhibition at 1000 µg/mL in assay [8] (setting [17]) and in [9] (setting [18]) was 21 to 40 mm throughout. In [6] (setting [19]), the “diameter of the growth inhibition circle, Esc.(IFO-3301)” value was “-”.

Turning to `O=C(C#CI)N1CCCCC1` [Example 19, 1-(3-Iodopropioloyl)piperidine], the zone of inhibition at 1000 µg/mL in assay [1] (setting [10]) is over 41 mm; in [2] (setting [11]), 21 to 40 mm; in [3] (setting [12]) it was over 41 mm; in assay [4] (setting [13]), 21 to 40 mm; in assay [5] (setting [14]), 21 to 40 mm; in assay [6] (setting [15]), 9 to 20 mm. For the same compound, the zone of inhibition at 1000 µg/mL in assay [7] (setting [16]) is over 41 mm; in assay [8] (setting [17]) it was 21 to 40 mm; in assay [9] (setting [18]) it was 21 to 40 mm.

On to `O=C(C#CI)Nc1ccc(Cl)cc1` [Example 24, N-(4-Chlorophenyl)-3-iodopropiolamide], for which the zone of inhibition at 1000 µg/mL is over 41 mm in assay [1] (setting [10]); 9 to 20 mm in assay [2] (setting [11]); over 41 mm in assay [3] (setting [12]); 21 to 40 mm in assay [4] (setting [13]); 21 to 40 mm in assay [5] (setting [14]); 9 to 20 mm in [6] (setting [15]). Further, the zone of inhibition at 1000 µg/mL in assay [7] (setting [16]) is over 41 mm; in assay [8] (setting [17]) it was 21 to 40 mm; in [9] (setting [18]), 21 to 40 mm.

As to `C=CCNC(=O)C#CI` [Example 23, N-Allyl-3-iodopropiolamide], the zone of inhibition at 1000 µg/mL in assay [1] (IFO7784, read-out: diameter of the growth inhibition circle, Pen.(IFO-7784)) was over 41 mm; in assay [2] (IFO13719, read-out: diameter of the growth inhibition circle, Bac.(IFO-13719)) it was 9 to 20 mm; in [3], over 41 mm; in assay [4] (IFO4407, read-out: diameter of the growth inhibition circle, Asp.(IFO-4407)) it was 21 to 40 mm; in assay [5] (IFO0583, read-out: diameter of the growth inhibition circle, Can.(IFO-0583)), 21 to 40 mm; in assay [6] (IFO3301, read-out: diameter of the growth inhibition circle, Esc.(IFO-3301)), 9 to 20 mm. The zone of inhibition at 1000 µg/mL in assay [7] (IFO30340, read-out: diameter of the growth inhibition circle, Cor.(IFO-30340)) was over 41 mm; in assay [8] (IFO12732, read-out: diameter of the growth inhibition circle, Sta.(IFO-12732)), 21 to 40 mm; in assay [9] (IFO0210, read-out: diameter of the growth inhibition circle, Sac.(IFO-0210)) it was 21 to 40 mm.

For `O=C(C#CI)Nc1cccc(Cl)c1` [Example 3, N-(3-Chlorophenyl)-3-iodopropiolamide], the zone of inhibition at 1000 µg/mL in assay [1] (setting [10]) is over 41 mm; in assay [2] (setting [11]), 21 to 40 mm; in [3] (setting [12]), over 41 mm; in [4] (setting [13]) it was 21 to 40 mm; in assay [5] (setting [14]) it was 21 to 40 mm; in [6] (setting [15]) it was 9 to 20 mm. Moreover, the figures for the zone of inhibition at 1000 µg/mL in assay [7] (setting [16]), in [8] (setting [17]) and in [9] (setting [18]) were over 41 mm, 21 to 40 mm and 21 to 40 mm, respectively.

Take `CC1COCC(C)N1C(=O)C#CI` (stereo not drawn) [Example 20, 4-(3-Iodopropioloyl)-3,5-dimethylmorpholine]: the zone of inhibition at 1000 µg/mL in [1] (setting [10]) is over 41 mm; in [2] (setting [11]), 9 to 20 mm; in [3] (setting [12]) it was over 41 mm; in assay [4] (setting [13]), 21 to 40 mm; in [5] (setting [14]), 9 to 20 mm; in assay [7] (setting [16]) it was over 41 mm. The zone of inhibition at 1000 µg/mL in assay [8] (setting [17]) and in assay [9] (setting [18]) was 21 to 40 mm each time. Besides, the “diameter of the growth inhibition circle, Esc.(IFO-3301)” value in [6] (setting [19]) was “-”.

As to `O=C(C#CI)NCCc1ccccc1` [Example 16, N-(2-Phenylethyl)-3-iodopropiolamide], the zone of inhibition at 1000 µg/mL was over 41 mm in [1] (setting [10]); 21 to 40 mm in assay [2] (setting [11]); over 41 mm in assay [3] (setting [12]); 21 to 40 mm in assay [4] (setting [13]); 21 to 40 mm in assay [5] (setting [14]); 9 to 20 mm in assay [6] (setting [15]). For the same compound, the zone of inhibition at 1000 µg/mL in [7] (setting [16]) was over 41 mm; in [8] (setting [17]), 21 to 40 mm; in assay [9] (setting [18]), over 41 mm.

Take `O=C(C#CI)Nc1ccc(Cl)cc1Cl` [Example 25, N-(2,4-Dichlorophenyl)-3-iodopropiolamide]: the zone of inhibition at 1000 µg/mL in assay [1] (setting [10]) was over 41 mm; in assay [2] (setting [11]) it was 9 to 20 mm; in [3] (setting [12]), over 41 mm; in [4] (setting [13]) it was 21 to 40 mm; in [5] (setting [14]) it was 21 to 40 mm; in assay [6] (setting [15]) it was 9 to 20 mm. Further, the zone of inhibition at 1000 µg/mL is over 41 mm in [7] (setting [16]), 21 to 40 mm in [8] (setting [17]) and 21 to 40 mm in assay [9] (setting [18]).

Take `O=C(C#CI)Nc1cccc(C(F)(F)F)c1` [Example 26, N-(3-Trifluoromethylphenyl)-3-iodopropiolamide]: the zone of inhibition at 1000 µg/mL in assay [1] (setting [10]) was over 41 mm; in assay [2] (setting [11]) it was 9 to 20 mm; in [3] (setting [12]), 21 to 40 mm; in [4] (setting [13]), 21 to 40 mm; in assay [5] (setting [14]), 21 to 40 mm; in [6] (setting [15]), 9 to 20 mm. Moreover, the zone of inhibition at 1000 µg/mL is over 41 mm in assay [7] (setting [16]), 21 to 40 mm in assay [8] (setting [17]) and 21 to 40 mm in assay [9] (setting [18]).

As to `O=C(C#CI)NC1CCCCC1` [Example 22, N-Cyclohexyl-3-iodopropiolamide], the zone of inhibition at 1000 µg/mL was over 41 mm in assay [1] (setting [10]); 9 to 20 mm in assay [2] (setting [11]); over 41 mm in assay [3] (setting [12]); 21 to 40 mm in assay [4] (setting [13]); 21 to 40 mm in assay [5] (setting [14]); 9 to 20 mm in [6] (setting [15]). Moreover, the figures for the zone of inhibition at 1000 µg/mL in assay [7] (setting [16]), in assay [8] (setting [17]) and in assay [9] (setting [18]) were over 41 mm, 21 to 40 mm and 21 to 40 mm, respectively.

Consider `O=C(C#CI)N1CCN(c2ccccc2)CC1` [Example 21, 1-(3-Iodopropioloyl)-4-phenylpiperazine], for which the zone of inhibition at 1000 µg/mL in [1] (setting [10]) is over 41 mm; in assay [2] (setting [11]) it was 9 to 20 mm; in [3] (setting [12]), over 41 mm; in assay [4] (setting [13]), 21 to 40 mm; in [5] (setting [14]), 21 to 40 mm; in assay [7] (setting [16]), over 41 mm. For the same compound, the zone of inhibition at 1000 µg/mL in [8] (setting [17]) and in assay [9] (setting [18]) was 21 to 40 mm each time. The “diameter of the growth inhibition circle, Esc.(IFO-3301)” value in [6] (setting [19]) is recorded as “-”.
